Data reported in US7381705B2, “Inhibitors of hepatitis C virus” (The Administrators Of The Tulane Educational Fund, priority 2004, dated 2008).
Read-outs that look alike come from different tables or passages of the source. Ends that are not written are not given here.

Test system: HCV pseudotype (HIV core proteins, HCV E1 and E2 of strain H77)
Details: for Percent inhibition: 25 μM; for Inhibition of HCV pseudotype infectivity (in words): summary of Tables 7 and 8
[1] = HCV J4 1b E2 peptides at ~25 μM, Table 8, controls as in Table 7
[2] = HCV H77 1a E2 peptides at ~25 μM, Table 7, virus alone 448,123

Row | Compound | Percent inhibition [%] | Luciferase units [1] | Luciferase units [2] | Inhibition of HCV pseudotype infectivity (in words)
1 | CC(C)C[C@H](NC(=O)[C@H](CC(C)C)NC(=O)[C@H](CC(C)C)NC(=O)[C@@H]1CCCN1C(=O)[C@H](CO)NC(=O)[C@H](CC(C)C)NC(=O)[C@H](CCC(=O)O)NC(=O)[C@H](CO)NC(=O)[C@H](CCCNC(=N)N)NC(=O)[C@H](CC(=O)O)NC(=O)[C@H](CCCNC(=N)N)NC(=O)[C@H](CC(=O)O)NC(=O)[C@H](CCC(=O)O)NC(=O)[C@H](CC(C)C)NC(=O)[C@H](CC(N)=O)NC(=O)[C@@H](N)CS)C(=O)N[C@@H](CO)C(=O)N[C@H](C(=O)O)[C@@H](C)O [compound 113, CNLEDRDRSELSPLLLST] | −27.3 | 570,553 luciferase units (lumens) |  | 
2 | CC[C@H](C)[C@H](NC(=O)[C@H](CCC(N)=O)NC(=O)[C@H](Cc1c[nH]c2ccccc12)NC(=O)[C@H](CCC(=O)O)NC(=O)[C@@H](NC(=O)[C@@H](NC(=O)[C@H](CO)NC(=O)[C@H](CC(C)C)NC(=O)[C@H](CC(C)C)NC(=O)[C@H](CC(C)C)NC(=O)[C@@H]1CCCN1C(=O)[C@H](CO)NC(=O)[C@H](CC(C)C)NC(=O)[C@H](CCC(=O)O)NC(=O)[C@H](CO)NC(=O)[C@@H](N)CCCNC(=N)N)[C@@H](C)O)[C@@H](C)O)C(=O)N[C@@H](CC(C)C)C(=O)N1CCC[C@H]1C(=O)O [compound 114, RSELSPLLLSTTEWQILP] | 39.7 | 270,190 luciferase units (lumens) |  | 
3 | AFVSFAIKWEYILLLFLL [compound 119, AFVSFAIKWEYILLLFLL] | 84.6 | 69,220 luciferase units (lumens) |  | 
4 | AGVDAETHVTGGSAGRTT [peptide 1, AGVDAETHVTGGSAGRTT] | 44.1 |  | 250,376 luciferase units (lumens) | 
5 | AGVDGETHTTGRVAGHTT [compound 54, AGVDGETHTTGRVAGHTT] | 17.9 | 372,393 luciferase units (lumens) |  | 
6 | AKQNIQLINTNGSWHINS [peptide 5, AKQNIQLINTNGSWHINS] | 89.3 |  | 48,000 luciferase units (lumens) | inhibitory
7 | ARVCACLWMMLLIAQAEA [compound 121] | 24.5 | 338,200 luciferase units (lumens) |  | 
8 | ARVCSCLWMMLLISQAEA [compound 49] | 31.4 |  | 307,310 luciferase units (lumens) | 
9 | CDLEDRDRSELSPLLLST [compound 38, CDLEDRDRSELSPLLLST] | 23.0 |  | 345,110 luciferase units (lumens) | 
10 | DTDVFVLNNTRPPLGNWF [compound 21, DTDVFVLNNTRPPLGNWF] | 45.9 |  | 242,223 luciferase units (lumens) | 
11 | DWFAQGWGPITYTKPNSS [compound 89, DWFAQGWGPITYTKPNSS] | −0.3 | 449,293 luciferase units (lumens) |  | 
12 | DYPYRLWHYPCTINYTIF [compound 32, DYPYRLWHYPCTINYTIF] | 81.0 |  | 85,086 luciferase units (lumens) | inhibitory
13 | DYPYRLWHYPCTLNFSIF [compound 108, DYPYRLWHYPCTLNFSIF] | 90.9 | 40,853 luciferase units (lumens) |  | inhibitory
14 | FYAHKFNSSGCPERMASC [compound 86] | 11.2 | 398,110 luciferase units (lumens) |  | 
15 | FYQHKFNSSGCPERLASC [compound 9] | −11.8 |  | 501,126 luciferase units (lumens) | 
16 | GHTTSGFTSLFSSGASQK [compound 81, GHTTSGFTSLFSSGASQK] | −7.3 | 480,623 luciferase units (lumens) |  | 
17 | GNNTLLCPTDCFRKHPEA [compound 27] | −28.4 |  | 575,206 luciferase units (lumens) | 
18 | GNRILICPTDCFRKHPEA [compound 103] | 31.8 | 305,690 luciferase units (lumens) |  | 
